These results are taken from patent publication US20250270209A1 (INTERLINE THERAPEUTICS, INC., priority 2022, published 2025).

One assay addresses LRRK2 wild type enzyme (Homo sapiens, UniProt Q5S007). As to the kind of experiment: Biochemical Assay: LRRK2 TR-FRET (LanthaScreen) kinase assay with LRRKtide substrate. Conditions: LRRK2 Inhibition, Table 8. Summed up: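 TR-FRET detection (Tb-labelled phospho-LRRKtide antibody, EDTA stop, 30 min) followed a 120 min, 23 °C reaction of 3 nM wild-type human LRRK2 with LRRKtide (400 nM) and ATP (25 μM) in Tris pH 8.0. Compounds: 11-point 3-fold series from 10 μM, 15 min enzyme preincubation.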
On the technique in general: Time-resolved FRET reads energy transfer from a long-lived donor to a nearby acceptor.

Assay [1] deals with T1, wild type LRRK2 overexpressed in recombinant HEK-293T cells (Homo sapiens, UniProt Q5S007).
T1 construct: host or cells: HEK293T (transient transfection with pCMV-LRRK2 WT plasmid)
The experiment in a line: pS935 LRRK2 Cell Assay (HTRF, phospho-LRRK2 Ser935). The conditions noted are these: LRRK2 Inhibition, Table 8, 2 hours compound incubation. Type of assay: cell-based. A digest of the protocol: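 Phospho-Ser935 LRRK2 measured by two-antibody HTRF (Eu-cryptate donor, d2 acceptor; 665/615 nm ratio) after overnight detection at 23° C. Before lysis, transiently LRRK2-transfected HEK-293T cells were exposed 2 h at 37° C to a 9-point, 3-fold series from 10 μM, with DMSO at 0.2%.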

Sequence of LRRK2 wild type enzyme (Q5S007 whole entry): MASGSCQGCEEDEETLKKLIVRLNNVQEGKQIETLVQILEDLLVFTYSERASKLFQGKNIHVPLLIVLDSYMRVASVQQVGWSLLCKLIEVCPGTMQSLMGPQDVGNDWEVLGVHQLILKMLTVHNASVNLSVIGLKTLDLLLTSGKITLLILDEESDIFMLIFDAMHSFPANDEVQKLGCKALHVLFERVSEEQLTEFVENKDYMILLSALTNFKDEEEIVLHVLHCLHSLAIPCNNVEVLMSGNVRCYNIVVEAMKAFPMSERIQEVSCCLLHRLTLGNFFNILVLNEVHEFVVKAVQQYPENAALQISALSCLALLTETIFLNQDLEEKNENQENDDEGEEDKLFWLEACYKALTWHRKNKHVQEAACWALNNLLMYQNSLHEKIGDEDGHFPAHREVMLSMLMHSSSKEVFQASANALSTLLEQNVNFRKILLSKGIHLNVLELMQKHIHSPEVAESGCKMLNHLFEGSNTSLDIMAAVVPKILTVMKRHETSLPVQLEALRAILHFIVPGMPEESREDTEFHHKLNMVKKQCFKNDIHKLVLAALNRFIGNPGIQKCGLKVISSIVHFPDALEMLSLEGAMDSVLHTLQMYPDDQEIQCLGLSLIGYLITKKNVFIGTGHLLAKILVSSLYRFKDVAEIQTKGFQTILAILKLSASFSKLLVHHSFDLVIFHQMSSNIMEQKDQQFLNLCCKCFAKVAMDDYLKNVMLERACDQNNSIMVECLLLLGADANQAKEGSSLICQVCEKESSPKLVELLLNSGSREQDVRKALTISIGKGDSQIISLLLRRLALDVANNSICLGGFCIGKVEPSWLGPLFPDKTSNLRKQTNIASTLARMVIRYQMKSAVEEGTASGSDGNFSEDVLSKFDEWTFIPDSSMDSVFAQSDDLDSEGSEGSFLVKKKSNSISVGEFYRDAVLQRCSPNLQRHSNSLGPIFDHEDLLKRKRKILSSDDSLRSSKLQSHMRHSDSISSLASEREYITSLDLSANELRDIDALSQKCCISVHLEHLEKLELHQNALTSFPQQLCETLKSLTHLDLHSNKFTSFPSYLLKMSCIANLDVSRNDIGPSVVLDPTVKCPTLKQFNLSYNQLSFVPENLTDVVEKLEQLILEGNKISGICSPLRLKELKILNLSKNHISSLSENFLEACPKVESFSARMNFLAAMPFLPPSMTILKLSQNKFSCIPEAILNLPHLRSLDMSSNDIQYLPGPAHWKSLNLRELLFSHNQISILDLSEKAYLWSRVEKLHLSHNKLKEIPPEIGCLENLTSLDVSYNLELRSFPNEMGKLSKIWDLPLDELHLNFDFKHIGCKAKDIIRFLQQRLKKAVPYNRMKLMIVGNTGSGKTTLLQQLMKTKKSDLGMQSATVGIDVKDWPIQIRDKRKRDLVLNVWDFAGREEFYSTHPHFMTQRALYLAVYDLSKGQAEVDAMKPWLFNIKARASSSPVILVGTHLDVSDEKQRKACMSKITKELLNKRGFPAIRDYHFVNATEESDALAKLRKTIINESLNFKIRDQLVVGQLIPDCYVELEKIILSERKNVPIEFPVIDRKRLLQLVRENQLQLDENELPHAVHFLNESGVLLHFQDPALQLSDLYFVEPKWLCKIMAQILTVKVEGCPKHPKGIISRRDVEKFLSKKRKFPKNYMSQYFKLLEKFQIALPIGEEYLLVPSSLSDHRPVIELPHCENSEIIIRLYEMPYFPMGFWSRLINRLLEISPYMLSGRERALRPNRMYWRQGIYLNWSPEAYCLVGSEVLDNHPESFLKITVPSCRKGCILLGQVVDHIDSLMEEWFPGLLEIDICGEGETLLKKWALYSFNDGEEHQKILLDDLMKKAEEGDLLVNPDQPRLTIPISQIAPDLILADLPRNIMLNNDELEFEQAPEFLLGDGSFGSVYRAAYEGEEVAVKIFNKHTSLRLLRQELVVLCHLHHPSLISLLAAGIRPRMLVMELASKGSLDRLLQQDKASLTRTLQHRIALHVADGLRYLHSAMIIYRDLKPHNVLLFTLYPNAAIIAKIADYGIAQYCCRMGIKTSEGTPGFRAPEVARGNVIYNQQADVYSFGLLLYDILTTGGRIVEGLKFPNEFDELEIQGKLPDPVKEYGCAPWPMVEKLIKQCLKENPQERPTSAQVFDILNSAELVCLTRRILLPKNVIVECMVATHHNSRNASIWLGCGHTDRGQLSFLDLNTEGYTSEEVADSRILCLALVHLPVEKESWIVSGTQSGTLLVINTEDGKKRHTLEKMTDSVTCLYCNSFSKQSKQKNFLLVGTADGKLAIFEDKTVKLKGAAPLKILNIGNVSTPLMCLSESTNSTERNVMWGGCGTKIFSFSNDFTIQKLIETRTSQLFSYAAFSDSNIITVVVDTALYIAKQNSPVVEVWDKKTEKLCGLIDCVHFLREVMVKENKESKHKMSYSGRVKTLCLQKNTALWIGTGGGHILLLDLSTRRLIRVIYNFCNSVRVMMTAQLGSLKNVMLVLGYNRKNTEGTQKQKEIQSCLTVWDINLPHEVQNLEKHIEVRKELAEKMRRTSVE
T1 sequence (Q5S007 whole entry): as above

`C[C@@H]1C[C@H](n2c(CC(=O)Nc3cnc(C(F)(F)F)n(C)c3=O)nc3cnc4ccc(C#N)cc4c32)CCO1` [Compound 220, N-[1-methyl-6-oxo-2-(trifluoromethyl)-1,6-dihydro-5-pyrimidinyl]{3-[(2R,4R)-2-methyltetrahydro-2H-pyran-4-yl]-12-cyano-3,5,8-triazatricyclo[7.4.0.0^2,6]trideca-1,4,6,8,10,12-hexaen-4-yl}acetamide]: the IC50 (usually the midpoint of a concentration-inhibition curve) was 0.447 nM at LRRK2 wild type enzyme and 4.25 nM in assay [1].

For `C[C@@H]1C[C@H](n2c(CC(=O)Nc3cncnc3)nc3cnc4ccc(C#N)cc4c32)CCO1` [Compound 322, N-5-pyrimidinyl{3-[(2R,4R)-2-methyltetrahydro-2H-pyran-4-yl]-12-cyano-3,5,8-triazatricyclo[7.4.0.0^2,6]trideca-1(9),2(6),4,7,10,12-hexaen-4-yl}acetamide], the IC50 against LRRK2 wild type enzyme stood at 1.08 nM; in assay [1], 32.2 nM.

As to `C[C@@H]1C[C@H](n2c(CC(=O)Nc3cnn(C4COC4)c3)nc3cnc4ccc(C#N)cc4c32)CCO1` [Compound 304, N-[1-(3-oxetanyl)-4-pyrazolyl]{3-[(2R,4R)-2-methyltetrahydro-2H-pyran-4-yl]-12-cyano-3,5,8-triazatricyclo[7.4.0.0^2,6]trideca-1(13),2(6),4,7,9,11-hexaen-4-yl}acetamide], the IC50 against LRRK2 wild type enzyme was 0.733 nM; in assay [1], 107 nM.

For the molecule `C[C@@H]1C[C@H](n2c(CC(=O)Nc3nccnc3Cl)nc3cnc4ccc(C#N)cc4c32)CCO1` [Compound 308, N-(3-chloro-2-pyrazinyl){3-[(2R,4R)-2-methyltetrahydro-2H-pyran-4-yl]-12-cyano-3,5,8-triazatricyclo[7.4.0.0^2,6]trideca-1(9),2(6),4,7,10,12-hexaen-4-yl}acetamide], the IC50 stood at 1.25 nM on LRRK2 wild type enzyme and 18.6 nM in assay [1].

Turning to `Cc1ccc(NC(=O)Cc2nc3cnc4ccc(C#N)cc4c3n2[C@@H]2CCO[C@H](C)C2)c(C)n1` [Compound 270, N-(2,6-dimethyl-3-pyridyl){3-[(2R,4R)-2-methyltetrahydro-2H-pyran-4-yl]-12-cyano-3,5,8-triazatricyclo[7.4.0.0^2,6]trideca-1,4,6,8,10,12-hexaen-4-yl}acetamide], the 50% inhibitory concentration (IC50) at LRRK2 wild type enzyme stood at 0.504 nM; in assay [1], 7.36 nM.

`CCOc1ncccc1NC(=O)Cc1nc2cnc3ccc(C#N)cc3c2n1[C@@H]1CCO[C@H](C)C1` [Compound 275, N-(2-ethoxy-3-pyridyl){3-[(2R,4R)-2-methyltetrahydro-2H-pyran-4-yl]-12-cyano-3,5,8-triazatricyclo[7.4.0.0^2,6]trideca-1,4,6,8,10,12-hexaen-4-yl}acetamide]: the IC50 against LRRK2 wild type enzyme stood at 0.478 nM; in assay [1], 2.41 nM.

Turning to `C[C@@H]1C[C@H](n2c(CC(=O)Nc3cnoc3)nc3cnc4ccc(Cl)cc4c32)CCO1` [Compound 313], the IC50 turned out to be 0.722 nM against LRRK2 wild type enzyme and 7.09 nM in assay [1].

Turning to `C[C@@H]1C[C@H](n2c([C@H]3CCCN(C(=O)C4CC4)C3)nc3cnc4ccc(C#N)cc4c32)CCO1` [Compound 29, 2-[(3S)-1-cyclopropanecarbonylpiperidin-3-yl]-1-[(2R,4R)-2-methyloxan-4-yl]-1H-imidazo[4,5-c]quinoline-8-carbonitrile], the IC50 against LRRK2 wild type enzyme was determined as 135 nM; in assay [1], 4680 nM.

For `C[C@@H]1C[C@H](n2c(CNc3ncco3)nc3cnc4ccc(C#N)cc4c32)CCO1` [Compound 11, 1-[(2R,4R)-2-methyloxan-4-yl]-2-{[(1,3-oxazol-2-yl)amino]methyl}-1H-imidazo[4,5-c]quinoline-8-carbonitrile], the IC50 stood at 4.23 nM at LRRK2 wild type enzyme and 609 nM in assay [1].

Turning to `C[C@@H]1C[C@H](n2c(CC(=O)NC3COC3)nc3cnc4ccc(Cl)cc4c32)CCO1` [Compound 141, 2-{8-chloro-1-[(2R,4R)-2-methyloxan-4-yl]-1H-imidazo[4,5-c]quinolin-2-yl}-N-(oxetan-3-yl)acetamide], the figures for the IC50 (against LRRK2 wild type enzyme; in assay [1]) were 0.53 nM and 18.7 nM, respectively.

Consider `Cc1ncc(NC(=O)Cc2nc3cnc4ccc(C#N)cc4c3n2[C@@H]2CCO[C@H](C)C2)cn1` [Compound 329, N-(2-methyl-5-pyrimidinyl){3-[(2R,4R)-2-methyltetrahydro-2H-pyran-4-yl]-12-cyano-3,5,8-triazatricyclo[7.4.0.0^2,6]trideca-1(9),2(6),4,7,10,12-hexaen-4-yl}acetamide], for which the IC50 against LRRK2 wild type enzyme turned out to be 0.483 nM; in assay [1] it was 16.5 nM.

With `Cc1nc2n(n1)CC(NC(=O)Cc1nc3cnc4ccc(C#N)cc4c3n1[C@@H]1CCO[C@H](C)C1)CC2` (stereo partly drawn) [Compound 244, N-(2-methyl-4,5,6,7-tetrahydro-1,3,3a-triaza-5-indenyl){3-[(2R,4R)-2-methyltetrahydro-2H-pyran-4-yl]-12-cyano-3,5,8-triazatricyclo[7.4.0.0^2,6]trideca-1,4,6,8,10,12-hexaen-4-yl}acetamide], the IC50 on LRRK2 wild type enzyme turned out to be 1.39 nM; in assay [1], 2630 nM.

For `C[C@@H]1C[C@H](n2c(CC(=O)Nc3nccs3)nc3cnc4ccc(C#N)cc4c32)CCO1` [Compound 335, N-(1,3-thiazol-2-yl){3-[(2R,4R)-2-methyltetrahydro-2H-pyran-4-yl]-12-cyano-3,5,8-triazatricyclo[7.4.0.0^2,6]trideca-1(9),2(6),4,7,10,12-hexaen-4-yl}acetamide], the 50% inhibitory concentration (IC50) at LRRK2 wild type enzyme worked out at 0.433 nM; in assay [1], 4.06 nM.

For `C[C@@H]1C[C@H](n2c(CC(=O)N[C@@H]3C[C@H]3F)nc3cnc4ccc(C#N)cc4c32)CCO1` [Compound 246, N-[(1R,2R)-2-fluorocyclopropyl]{3-[(2R,4R)-2-methyltetrahydro-2H-pyran-4-yl]-12-cyano-3,5,8-triazatricyclo[7.4.0.0^2,6]trideca-1(13),2(6),4,7,9,11-hexaen-4-yl}acetamide], the IC50 against LRRK2 wild type enzyme came to 1.1 nM; in assay [1], 52.2 nM.

For the molecule `C[C@@H]1C[C@H](n2c(C3CC(=O)N(c4cnn(C)c4)C3)nc3cnc4ccc(C#N)cc4c32)CCO1` (mixture of isomers) [Compound 59, 2-[(3RS)-1-(1-methyl-1H-pyrazol-4-yl)-5-oxopyrrolidin-3-yl]-1-[(2R,4R)-2-methyloxan-4-yl]-1H-imidazo[4,5-c]quinoline-8-carbonitrile], the figures for the IC50 (on LRRK2 wild type enzyme; in assay [1]) were 1.06 nM and 118 nM, respectively.

For `CCOc1ccc(NC(=O)Cc2nc3cnc4ccc(C#N)cc4c3n2[C@@H]2CCO[C@H](C)C2)cn1` [Compound 274, N-(6-ethoxy-3-pyridyl){3-[(2R,4R)-2-methyltetrahydro-2H-pyran-4-yl]-12-cyano-3,5,8-triazatricyclo[7.4.0.0^2,6]trideca-1,4,6,8,10,12-hexaen-4-yl}acetamide], the IC50 at LRRK2 wild type enzyme amounted to 0.445 nM; in assay [1] it was 7.97 nM.

For `C[C@@H]1C[C@H](n2c(CC(=O)NCC(C)(C)CO)nc3cnc4ccc(C#N)cc4c32)CCO1` [Compound 241, N-(3-hydroxy-2,2-dimethylpropyl){3-[(2R,4R)-2-methyltetrahydro-2H-pyran-4-yl]-12-cyano-3,5,8-triazatricyclo[7.4.0.0^2,6]trideca-1(9),2(6),4,7,10,12-hexaen-4-yl}acetamide], the IC50 against LRRK2 wild type enzyme turned out to be 0.991 nM; in assay [1], 77.6 nM.

As to `C[C@@H]1C[C@H](n2c(C3CN(S(C)(=O)=O)C3)nc3cnc4ccc(C#N)cc4c32)CCO1` [Compound 67, 2-(1-methanesulfonylazetidin-3-yl)-1-[(2R,4R)-2-methyloxan-4-yl]-1H-imidazo[4,5-c]quinoline-8-carbonitrile], the IC50 against LRRK2 wild type enzyme was 3.03 nM; in assay [1], 500 nM.

For the molecule `Cc1cc(F)ncc1NC(=O)Cc1nc2cnc3ccc(C#N)cc3c2n1[C@@H]1CCO[C@H](C)C1` [Compound 205, N-(6-fluoro-4-methyl-3-pyridyl){3-[(2R,4R)-2-methyltetrahydro-2H-pyran-4-yl]-12-cyano-3,5,8-triazatricyclo[7.4.0.0^2,6]trideca-1,4,6,8,10,12-hexaen-4-yl}acetamide], the IC50 was 0.387 nM at LRRK2 wild type enzyme and 11.1 nM in assay [1].

With `C[C@@H]1C[C@H](n2c(CC(=O)NCc3cccc(F)n3)nc3cnc4ccc(C#N)cc4c32)CCO1` [Compound 146, 2-{8-cyano-1-[(2R,4R)-2-methyloxan-4-yl]-1H-imidazo[4,5-c]quinolin-2-yl}-N-[(6-fluoropyridin-2-yl)methyl]acetamide], the values for the IC50 (at LRRK2 wild type enzyme; in assay [1]) were 0.313 nM and 4.79 nM, respectively.

Regarding `C[C@@H]1C[C@H](n2c(CC(=O)NCc3cnn(C)c3)nc3cnc4ccc(C#N)cc4c32)CCO1` [Compound 87, 2-{8-cyano-1-[(2R,4R)-2-methyloxan-4-yl]-1H-imidazo[4,5-c]quinolin-2-yl}-N-[(1-methyl-1H-pyrazol-4-yl)methyl]acetamide], the results for the IC50 (at LRRK2 wild type enzyme; in assay [1]) were 0.473 nM and 27.4 nM, respectively.

`C[C@@H]1C[C@H](n2c(CC(=O)NCc3ccccn3)nc3cnc4ccc(C#N)cc4c32)CCO1` [Compound 86, 2-{8-cyano-1-[(2R,4R)-2-methyloxan-4-yl]-1H-imidazo[4,5-c]quinolin-2-yl}-N-[(pyridin-2-yl)methyl]acetamide]: the IC50 on LRRK2 wild type enzyme came to 0.422 nM; in assay [1], 7.12 nM.

Turning to `C[C@@H]1C[C@H](n2c(CC(=O)Nc3ncc(C(F)(F)F)cn3)nc3cnc4ccc(C#N)cc4c32)CCO1` [Compound 355, N-[5-(trifluoromethyl)-2-pyrimidinyl]{3-[(2R,4R)-2-methyltetrahydro-2H-pyran-4-yl]-12-cyano-3,5,8-triazatricyclo[7.4.0.0^2,6]trideca-1(9),2(6),4,7,10,12-hexaen-4-yl}acetamide], the IC50 at LRRK2 wild type enzyme was 0.491 nM; in assay [1], 3.92 nM.
